The record followed here is patent US8569383B2, “Utilization of rhinologically active substances” (Symrise AG, priority 2000, dated 2013).

A short description of this assay: Sensory test of toothpaste with eucalyptus menthol type flavoring by trained expert panel. In kind it is in vivo. Conditions: compared with 1-menthyl methyl ether. As for the experimental part:
Production of a Toothpaste Flavoring of the Eucalyptus Menthol Type, Using Menthyl Methyl Ether
The following were mixed:
In a second mixture batch, the 1,8-cineole (eucalyptol) content was replaced by 1-menthyl methyl ether. Both flavorings are incorporated at a concentration of 1.3% by weight into a standard toothpaste mix based on silicic acid. Both types of toothpaste were tested under conditions of practice by an expert panel trained in sensory testing.

The structures appear in SMILES notation.

For `COC1CC(C)CC(C)(C)C1` (stereo not drawn) [3,3,5-trimethylcyclohexyl methyl ether], the “sensory effects when used instead of 1-menthyl methyl ether” value (“sensory effects when used instead” for short) is given as “Comparable effects”.

Take `COC(C)C1CCCC(C)(C)C1` (stereo not drawn) [1-(3,3-Dimethylcyclohexyl)ethyl methyl ether]: the “sensory effects when used instead” value is “Comparable effects”.

`C=C(C)C1CCC(C)CC1OC` (stereo not drawn) [isopulegyl methyl ether, Isopulegyl methyl ether]: the “sensory effects when used instead” value is recorded as “Comparable effects”.
